Test results reported in ChEMBL document CHEMBL3886420, “Substituted pyrimidine compounds and their use as SYK inhibitors” (2015).

Target: Tyrosine-protein kinase SYK (Homo sapiens, UniProt P43405)
Experiment: Inhibition Assay: Compounds of the invention were initially diluted to 10 mM in 100% DMSO (CALBIOCHEM) for storage and made into kinase buffer solution to create a compound concentration ranging from 1 uM and 10 uM. Serial dilutions of compounds of the invention were dispensed into a 96-well plate (GREINER BIOSCIENCES) at 6 uL each. Purified full-length human SYK (CARNA BIOSCIENCES) were diluted …

With CCOC(=O)n1cc(C(C)=O)c2cc(Nc3nccc(-n4cc(CN5C[C@H](O)CO5)c(C)n4)n3)ccc21 the IC50 was 45.6 nM.
